{"source": "patent US9958439B2", "about": "“Carbohydrate detection” (RICHTER LIFE SCIENCE DEVELOPMENT AB, priority 2012, dated 2018)", "key": {"[1]": {"conditions": "for RFU change (Correlation analysis): probe-specific excitation λ, emission 545 nm", "description": "(§1) 3 μM of each probe was applied to serial two fold dilutions of the carbohydrate of which the concentration shown here are 5 mg/ml (_.), 2.5 mg/ml (. . . ) 1.25 mg/ml (__) and 0 mg/ml (_). The excitation spectrum of the probe was analyzed for wavelengths 300-500 nm with emission read at 545 nm.\n(§2) 3 μM of each probe was applied to serial two fold dilutions of the carbohydrate. Respective probes were excited at wavelengths unique to each probe (specified in figure), and emission was read at 545 nm.\n(§3) Serial dilutions of carbohydrate suspensions were prepared in dH2O. Concentrations ranging from 10 to 0.039 mg/ml was used for β-1,3-glucan, cellulose and chitin, whereas 5 to 0.019 mg/ml was used for sodium alginate, glucose, amylose, glycogen, cellulobiose, heparin, chondroitin sulfate A. 3 μM of each LCO probe was added to 1 ml aliquots of each concentration of carbohydrate, after which 100 μl was dispensed in triplicates into 96 well plates. Excitation spectra were collected by exciting the sample from 300 to 500 nm and detecting emission at 545 nm. Detection of carbohydrate is concluded when there is a reproducible change in λmax and/or RFU intensity with reference to the negative control. Data from three concentrations, as well as the negative control are shown for each carbohydrate as specified in respective figure.\n(§4) The excitation wavelength (emission detected at 545 nm) selected for each LCO is either (1) the λmax, or (2) the excitation wavelength which suffers the lowest background. A linear regression analysis is performed to determine the relationship between the carbohydrate concentration and RFU."}, "[2]": {"conditions": "for RFU change (Correlation analysis) / RFU change (Signal deviation with increasing [Carbohydrate]) / λmax change: 3 μM probe; for RFU change (Correlation analysis): probe-specific excitation λ, emission 545 nm; for RFU change (Signal deviation with increasing [Carbohydrate]) / λmax change: spectral analysis, Excitation 300-500, Emission 545; for carbohydrate can be detected and/or differentiated by the LCO: conclusion from change in signal magnitude and/or shift in λmax; for Gradient Parameters (gradient of regression line) / Linear relationship / Quality of Gradient: linear regression", "description": "(§5) The excitation spectrum of the probe was analyzed for wavelengths 300-500 nm with emission read at 545 nm.\n(§6) 3 μM of each probe was applied to serial two fold dilutions of the insoluble carbohydrate. Respective probes were excited at wavelengths unique to each probe (specified in figure), and emission was read at 545 nm.\nas §3, §4"}, "[3]": {"conditions": "for RFU change (Correlation analysis) / RFU change (Signal deviation with increasing [Carbohydrate]) / λmax change: 3 μM probe; for RFU change (Correlation analysis): probe-specific excitation λ, emission 545 nm; for RFU change (Signal deviation with increasing [Carbohydrate]) / λmax change: spectral analysis, Excitation 300-500, Emission 545", "description": "3 μM of each probe was applied to serial two fold dilutions of the carbohydrate of which the concentration shown here are 5 mg/ml (_.), 2.5 mg/ml (. . . ), 1.25 mg/ml (__) and 0 mg/ml (_). The excitation spectrum of the probe was analyzed for wavelengths 300-500 nm with emission read at 545 nm.\nas §2, §3, §4"}, "[4]": {"description": "3 μM of each probe was applied to serial two fold dilutions of the insoluble carbohydrate of which the concentration shown here are 5 mg/ml (_.), 2.5 mg/ml (. . . ), 1.25 mg/ml (__) and 0 mg/ml (_). The excitation spectrum of the probe was analyzed for wavelengths 300-500 nm with emission read at 545 nm.\nas §6, §3, §4"}, "[5]": {"description": "as §5, §2, §3, §4", "remark": "listed apart in the source"}, "[6]": {"description": "as §1\n3 μM of each probe was applied to serial two fold dilutions of the carbohydrate. Respective probes were excited at wavelengths unique to each probe (specified in figure), and emission was read at 545 nm. […] The mean increase in signal (_) with [Glucose] and the fitted regression line (__) is shown.\nas §3, §4", "remark": "listed apart in the source"}, "[7]": {"conditions": "Cellulobiose 5-0.019 mg/ml, 3 μM probe, spectral analysis, Excitation 300-500, Emission 545"}, "[8]": {"conditions": "amylose concentration vs RFU, linear regression"}, "[9]": {"conditions": "cellulobiose concentration vs RFU, linear regression"}, "[10]": {"conditions": "β-1,3-glucan concentration vs RFU"}, "[11]": {"conditions": "glycogen concentration vs RFU, linear regression"}, "[12]": {"conditions": "heparin concentration vs RFU, linear regression"}, "[13]": {"conditions": "Sodium alginate 5-0.019 mg/ml, 3 μM probe, spectral analysis, Excitation 300-500, Emission 545"}, "[14]": {"conditions": "sodium alginate concentration vs RFU, linear regression"}, "[15]": {"conditions": "Chondroitin Sulfate A 5-0.019 mg/ml, 3 μM probe, spectral analysis, Excitation 300-500, Emission 545"}, "[16]": {"conditions": "Chondroitin Sulfate A concentration vs RFU, linear regression"}, "[17]": {"conditions": "glucose concentration vs RFU, linear regression"}}, "note": "Where two headings read alike, the source gives them in different places.", "data": [{"smiles": "Cl.Cl.NCCc1cc(-c2cccs2)sc1-c1ccc(-c2sc(-c3cccs3)cc2CCN)s1", "note": "[pHTEA, penta Hydrogen Thiophene Ethanol Amine]", "values": [{"measurement": "RFU change (Correlation analysis)", "setting": "[1]; Amylose 5-0.019 mg/ml, 3 μM probe", "value": "Decreases"}, {"measurement": "RFU change (Signal deviation with increasing [Carbohydrate])", "setting": "[1]; Amylose 5-0.019 mg/ml, 3 μM probe, spectral analysis, Excitation 300-500, Emission 545", "value": "Decreases"}, {"measurement": "carbohydrate can be detected and/or differentiated by the LCO", "setting": "[1]; Amylose, conclusion from change in signal magnitude and/or shift in λmax", "value": "can be detected and/or differentiated"}, {"measurement": "RFU change (Correlation analysis)", "setting": "[1]; Cellulobiose 5-0.019 mg/ml, 3 μM probe", "value": "Unclear"}, {"measurement": "RFU change (Signal deviation with increasing [Carbohydrate])", "setting": "[1]; [7]", "value": "Unclear"}, {"measurement": "λmax change", "setting": "[1]; [7]", "value": "No change"}, {"measurement": "Gradient Parameters (gradient of regression line)", "setting": "[1]; [8]", "value": "−6680 ± 1421"}, {"measurement": "Linear relationship", "setting": "[1]; [8]", "value": "Significant"}, {"measurement": "Quality of Gradient", "setting": "[1]; [8]", "value": "Negative"}, {"measurement": "Gradient Parameters (gradient of regression line)", "setting": "[1]; [9]", "value": "39.5 ± 66.5"}, {"measurement": "Quality of Gradient", "setting": "[1]; [9]", "value": "Horizontal"}, {"measurement": "Sensitivity", "setting": "[1]; to amylose", "value": "Yes"}, {"measurement": "Sensitivity", "setting": "[1]; to cellulobiose", "value": "No"}, {"measurement": "RFU change (Correlation analysis)", "setting": "[2]; Cellulose 10-[…]", "value": "Increase"}, {"measurement": "RFU change (Signal deviation with increasing [Carbohydrate])", "setting": "[2]; Cellulose 10-[…]", "value": "Increase"}, {"measurement": "λmax change", "setting": "[2]; Cellulose 10-[…]", "value": "Redshift"}, {"measurement": "carbohydrate can be detected and/or differentiated by the LCO", "setting": "[2]; Cellulose", "value": "can be detected and/or differentiated"}, {"measurement": "RFU change (Correlation analysis)", "setting": "[2]; Chitin 10-[…]", "value": "Decreases"}, {"measurement": "RFU change (Signal deviation with increasing [Carbohydrate])", "setting": "[2]; Chitin 10-[…]", "value": "Decrease"}, {"measurement": "λmax change", "setting": "[2]; Chitin 10-[…]", "value": "Redshift"}, {"measurement": "carbohydrate can be detected and/or differentiated by the LCO", "setting": "[2]; Chitin", "value": "can be detected and/or differentiated"}, {"measurement": "Gradient Parameters (gradient of regression line)", "setting": "[2]; cellulose concentration vs RFU", "value": "6001 ± 1187"}, {"measurement": "Linear relationship", "setting": "[2]; cellulose concentration vs RFU", "value": "Significant"}, {"measurement": "Quality of Gradient", "setting": "[2]; cellulose concentration vs RFU", "value": "Positive"}, {"measurement": "Gradient Parameters (gradient of regression line)", "setting": "[2]; chitin concentration vs RFU", "value": "−9030 ± 110.1"}, {"measurement": "Linear relationship", "setting": "[2]; chitin concentration vs RFU", "value": "Significant"}, {"measurement": "Quality of Gradient", "setting": "[2]; chitin concentration vs RFU", "value": "Negative"}, {"measurement": "Sensitivity", "setting": "[2]; to cellulose", "value": "Yes"}, {"measurement": "Sensitivity", "setting": "[2]; to chitin", "value": "Yes"}, {"measurement": "Sensitivity", "setting": "[2]; to β-1,3-glucan", "value": "Yes"}, {"measurement": "carbohydrate can be detected and/or differentiated by the LCO", "setting": "[2]; β-1,3-Glucan", "value": "can be detected and/or differentiated"}, {"measurement": "RFU change (Correlation analysis)", "setting": "[2]; β-1,3-glucan 10-[…]", "value": "Decrease"}, {"measurement": "RFU change (Signal deviation with increasing [Carbohydrate])", "setting": "[2]; β-1,3-glucan 10-[…]", "value": "Decrease"}, {"measurement": "λmax change", "setting": "[2]; β-1,3-glucan 10-[…]", "value": "Redshift"}, {"measurement": "Gradient Parameters (gradient of regression line)", "setting": "[2]; [10]", "value": "−664.6 ± 206.2"}, {"measurement": "Quality of Gradient", "setting": "[2]; [10]", "value": "Negative"}, {"measurement": "RFU change (Correlation analysis)", "setting": "[3]; Glycogen 5-0.019 mg/ml", "value": "Decreases"}, {"measurement": "RFU change (Signal deviation with increasing [Carbohydrate])", "setting": "[3]; Glycogen 5-0.019 mg/ml", "value": "Decreases"}, {"measurement": "λmax change", "setting": "[3]; Glycogen 5-0.019 mg/ml", "value": "Redshift"}, {"measurement": "carbohydrate can be detected and/or differentiated by the LCO", "setting": "[3]; Glycogen, conclusion from change in signal magnitude and/or shift in λmax", "value": "can be detected and/or differentiated"}, {"measurement": "RFU change (Correlation analysis)", "setting": "[3]; Heparin 5-0.019 mg/ml", "value": "Unclear"}, {"measurement": "RFU change (Signal deviation with increasing [Carbohydrate])", "setting": "[3]; Heparin 5-0.019 mg/ml", "value": "Decreases"}, {"measurement": "λmax change", "setting": "[3]; Heparin 5-0.019 mg/ml", "value": "Redshift"}, {"measurement": "Gradient Parameters (gradient of regression line)", "setting": "[3]; [11]", "value": "−451 ± 328"}, {"measurement": "Quality of Gradient", "setting": "[3]; [11]", "value": "Negative"}, {"measurement": "Gradient Parameters (gradient of regression line)", "setting": "[3]; [12]", "value": "−109.3 ± 248"}, {"measurement": "Linear relationship", "setting": "[3]; [12]", "value": "Not Significant"}, {"measurement": "Quality of Gradient", "setting": "[3]; [12]", "value": "Horizontal"}, {"measurement": "Sensitivity", "setting": "[3]; to glycogen", "value": "Yes"}, {"measurement": "Sensitivity", "setting": "[3]; to heparin", "value": "No"}, {"measurement": "RFU change (Correlation analysis)", "setting": "[4]; Sodium alginate 5-0.019 mg/ml, 3 μM probe, probe-specific excitation λ, emission 545 nm", "value": "Increases"}, {"measurement": "RFU change (Signal deviation with increasing [Carbohydrate])", "setting": "[4]; [13]", "value": "Increases"}, {"measurement": "λmax change", "setting": "[4]; [13]", "value": "Redshift"}, {"measurement": "carbohydrate can be detected and/or differentiated by the LCO", "setting": "[4]; Sodium alginate, conclusion from change in signal magnitude and/or shift in λmax", "value": "can be detected and/or differentiated"}, {"measurement": "Gradient Parameters (gradient of regression line)", "setting": "[4]; [14]", "value": "832.4 ± 174.5"}, {"measurement": "Linear relationship", "setting": "[4]; [14]", "value": "Significant"}, {"measurement": "Quality of Gradient", "setting": "[4]; [14]", "value": "Positive"}, {"measurement": "Sensitivity", "setting": "[4]; to sodium alginate", "value": "Yes"}, {"measurement": "RFU change (Correlation analysis)", "setting": "[5]; Chondroitin Sulfate A 5-0.019 mg/ml, 3 μM probe, probe-specific excitation λ, emission 545 nm", "value": "Increases"}, {"measurement": "RFU change (Signal deviation with increasing [Carbohydrate])", "setting": "[5]; [15]", "value": "Increases"}, {"measurement": "λmax change", "setting": "[5]; [15]", "value": "Redshift"}, {"measurement": "Gradient Parameters (gradient of regression line)", "setting": "[5]; [16]", "value": "5989 ± 727"}, {"measurement": "Linear relationship", "setting": "[5]; [16]", "value": "Significant"}, {"measurement": "Quality of Gradient", "setting": "[5]; [16]", "value": "Positive"}, {"measurement": "carbohydrate can be detected and/or differentiated by the LCO", "setting": "[5]; Chondroitin sulfate A, conclusion from change in signal magnitude and/or shift in λmax", "value": "can be detected and/or differentiated"}, {"measurement": "Sensitivity", "setting": "[5]; to Chondroitin Sulfate A", "value": "Yes"}, {"measurement": "RFU change (Correlation analysis)", "setting": "[6]; Glucose 5-0.019 mg/ml, 3 μM probe, probe-specific excitation λ, emission 545 nm", "value": "Unclear"}, {"measurement": "RFU change (Signal deviation with increasing [Carbohydrate])", "setting": "[6]; Glucose 5-0.019 mg/ml, 3 μM probe, spectral analysis, Excitation 300-500, Emission 545", "value": "Increases"}, {"measurement": "Gradient Parameters (gradient of regression line)", "setting": "[6]; [17]", "value": "−67.4 ± 37.2"}, {"measurement": "Quality of Gradient", "setting": "[6]; [17]", "value": "Horizontal"}, {"measurement": "Sensitivity", "setting": "[6]; to glucose", "value": "No"}]}]}
